From ChEMBL document CHEMBL4138090, “4-Phenyl quinoline derivatives as potential serotonin receptor ligands with antiproliferative activity” (Eur J Med Chem, 2017)
Calls of active or inactive are those of the source. No cut-off for these calls is given here.

Key:
MCF7 [1] = assay: Antiproliferative activity against human MCF7 cells after 72 hrs by MTT assay; type: functional, cell-based; conditions: MCF7, 72 h
MCF7 [2] = assay: Antiproliferative activity against human MCF7 cells at 5 uM after 72 hrs by MTT assay; type: functional, cell-based
MCF7 [3] = assay: Antiproliferative activity against human MCF7 cells at 5 uM after 72 hrs in presence of serotonin by MTT assay; type: functional, cell-based
[4] = Cytotoxicity against HEK293 cells assessed as reduction in cell viability after 72 hrs by MTT assay; type: cell-based; conditions: human, read-out: LD50
[5] = target: 5-hydroxytryptamine receptor 2A (Homo sapiens) (UniProt P28223); assay: Antagonist activity at 5-HT2A receptor in human MCF7 cells assessed as inhibition of serotonin-induced calcium flux at 5 uM measured at 5 secs time interval for 2 mins by Fluo-4AM dye based fluorescence microscopic analysis; type: functional, cell-based
Chain of 5-hydroxytryptamine receptor 2A (Homo sapiens) (P28223 whole entry): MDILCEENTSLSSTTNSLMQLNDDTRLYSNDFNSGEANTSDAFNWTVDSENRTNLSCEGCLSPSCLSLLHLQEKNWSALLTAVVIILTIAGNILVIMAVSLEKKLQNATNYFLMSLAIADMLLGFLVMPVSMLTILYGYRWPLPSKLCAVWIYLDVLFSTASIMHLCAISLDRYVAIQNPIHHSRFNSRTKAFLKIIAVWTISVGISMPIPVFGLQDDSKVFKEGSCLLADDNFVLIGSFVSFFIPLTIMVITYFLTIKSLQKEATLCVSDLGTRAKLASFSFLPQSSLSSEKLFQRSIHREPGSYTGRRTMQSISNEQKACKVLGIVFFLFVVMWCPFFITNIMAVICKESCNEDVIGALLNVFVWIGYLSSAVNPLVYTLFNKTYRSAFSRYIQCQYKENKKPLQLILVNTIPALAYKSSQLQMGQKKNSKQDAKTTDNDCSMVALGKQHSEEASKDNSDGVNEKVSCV

MCF7 [6] = assay: Induction of morphological changes in human MCF7 cells assessed as loss in cellular integrity at 5 uM after 72 hrs; type: functional, cell-based
MCF7 [7] = assay: Induction of morphological changes in human MCF7 cells assessed as cell detachment at 5 uM after 72 hrs; type: functional, cell-based
[8] = target: 5-hydroxytryptamine receptor 2A (Homo sapiens) (UniProt P28223); assay: Antagonist activity at 5-HT2A receptor in human MCF7 cells assessed as reduction in ERK1/2 phosphorylation at 5 uM after 24 to 48 hrs by Western blot analysis relative to control; type: functional, cell-based
MCF7 [9] = assay: Induction of apoptosis in human MCF7 cells at 5 uM after 48 hrs by Annexin V-FITC/propidium iodide staining based flow cytometry; type: functional, cell-based
MCF7 [10] = assay: Induction of apoptosis in human MCF7 cells assessed as early apoptotic cells at 5 uM after 48 hrs by Annexin V-FITC/propidium iodide staining based flow cytometry; type: functional, cell-based
MCF7 [11] = assay: Cell cycle arrest in human MCF7 cells assessed as accumulation at G1/S phase after 48 hrs by propidium iodide staining based flow cytometry; type: functional
MCF7 [12] = assay: Cell cycle arrest in human MCF7 cells assessed as accumulation at G2/M phase after 48 hrs by propidium iodide staining based flow cytometry; type: functional
MCF7 [13] = assay: Cell cycle arrest in human MCF7 cells assessed as accumulation at sub-G0/G1 phase after 48 hrs by propidium iodide staining based flow cytometry; type: functional

Row | Structure (SMILES) | IC50 (MCF7 [1]) [µM] | Activity (MCF7 [2]) | Activity (MCF7 [3]) | CC50 at 72 h [4] [µM] | inhibition [5] | Activity (MCF7 [6]) | Activity (MCF7 [7]) | inhibition [8] [%] | Activity (MCF7 [9]) | Activity (MCF7 [10]) | Activity (MCF7 [11]) | Activity (MCF7 [12]) | Activity (MCF7 [13])
1 | CCN1CCN(c2nc3ccccc3c(-c3ccccc3)c2-c2ccccc2)CC1 | 7.48 | Active | inactive | > 24 | Active |  |  |  |  |  |  |  | 
2 | CCN1CCN(c2nc3ccccc3c(-c3ccccc3)c2C)CC1 | 6.15 | Active | inactive | > 24 | Active | Active | Active | > 50 | Active | Active | inactive | inactive | Active
3 | Cc1c(N2CCN(C)CC2)nc2ccccc2c1-c1ccccc1 |  |  |  |  | Active |  |  |  |  |  |  |  | 
